In PMC12081497, “Design, synthesis, and anti-breast cancer activity evaluation of novel 3-cyanopyridine derivatives as PIM-1 inhibitors” (Molecular Diversity, 2024):
Read-outs that look alike come from different tables or passages of the source.

Experiments:
[1] = test system: MCF-7 human cancer cell line; test: In vitro anti-proliferative MTT assay; format: cell-based
Experimental: In the present study, all synthesized cyanopyridine hybrids were subjected to in vitro cytotoxicity testing using the MTT assay method against MCF-7 human cancer.
All cell lines were maintained in RPMI1640 medium containing 10% FBS at 37 °C in 5% CO2 humidified incubator. Cell proliferation assay was determined by the MTT (3-[4,5-dimethyl-2-thiazolyl]-2,5- diphenyl-2H-tetrazolium bromide) method. Briefly, cells were plated in triplicate wells (3–5 × 10^4 cells/well) of 96-well flat-bottomed plates and incubated overnight prior to drug exposure and then treated with different concentrations of the tested compounds for 48 h. After that, 20 μL of MTT reagent at a final concentration of 0.5 mg/mL was added to each well. Cells were then incubated for 2 h with MTT, after which 100 μL of DMSO solution was added to dissolve the formazan salt resulting from the reduction of MTT and the absorbance was read at 570 nm using an automatic plate reader. The IC50 values were calculated according to inhibition ratios from three independent experiments.

PIM-1 kinase = target: T1, PIM-1 kinase (Homo sapiens, UniProt P11309); conditions: cited from earlier work
T1 construct: purchased Promega V4032
T1 sequence (P11309 whole entry): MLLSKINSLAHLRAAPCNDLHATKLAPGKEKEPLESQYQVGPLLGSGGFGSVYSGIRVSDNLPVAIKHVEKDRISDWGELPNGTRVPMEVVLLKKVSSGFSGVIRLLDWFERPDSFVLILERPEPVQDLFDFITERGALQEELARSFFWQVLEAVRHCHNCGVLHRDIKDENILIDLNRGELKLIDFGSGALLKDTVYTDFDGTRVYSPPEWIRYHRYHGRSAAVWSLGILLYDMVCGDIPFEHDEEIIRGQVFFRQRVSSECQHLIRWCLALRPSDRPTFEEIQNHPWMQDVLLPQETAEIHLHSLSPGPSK

[2] = Homo sapiens, MCF7, 48 h, MTT, MCF-7, 48 h treatment, read-out: Cytotoxicity IC50, SD (±), MCF7
[3] = MTT, MCF-7, 48 h treatment, read-out: Cytotoxicity IC50, SD (±), MCF7

melting point [°C] | Molecule | IC50 [1] [µM] | IC50 [1, 2] [µM] | IC50 [1, 3] [µM] | IC50 (PIM-1 kinase) [µM]
 | 2-(4-(3-Cyano-2-oxo-6-phenyl-1,2-dihydropyridin-4-yl)-2-methoxyphenoxy)-N-phenylacetamide [8a] | 14.3 ± 0.59 |  |  | 
 | 2-(4-(6-(4-Chlorophenyl)-3-cyano-2-oxo-1,2-dihydropyridin-4-yl)-2-methoxyphenoxy)-N-phenylacetamide [8d] | 18 ± 0.74 |  |  | 
 | 2-(4-(6-(4-Chlorophenyl)-3-cyano-2-oxo-1,2-dihydropyridin-4-yl)-2-methoxyphenoxy)-N-phenylacetamide [9d] | 2.05 |  |  | 
276 to 278 | COc1cc(-c2cc(-c3ccccc3)[nH]c(=O)c2C#N)ccc1OCC(=O)Nc1ccccc1 [7a, 2-(4-(3-Cyano-2-oxo-6-phenyl-1,2-dihydropyridin-4-yl)-2-methoxyphenoxy)-Nphenylacetamide] |  | 8.06 ± 0.33 | 8.06 ± 0.33 | 
 | COc1cccc(-c2cc(-c3ccc(OCC(=O)Nc4ccccc4)c(OC)c3)c(C#N)c(=O)[nH]2)c1 [7b, 2-(4-(3-Cyano-6-(3-methoxyphenyl)-2-oxo-1,2-dihydropyridin-4-yl)-2methoxyphenoxy)-N-phenylacetamide] |  | 56.8 ± 2.34 |  | 
284 to 286 | COc1ccc(-c2cc(-c3ccc(OCC(=O)Nc4ccccc4)c(OC)c3)c(C#N)c(=O)[nH]2)cc1 [7c, 2-(4-(3-Cyano-6-(4-methoxyphenyl)-2-oxo-1,2-dihydropyridin-4-yl)-2-methoxyphenoxy)-N-phenylacetamide] |  | 7.72 ± 1.69 | 7.73 ± 0.32 | 
276 to 278 | COc1cc(-c2cc(-c3ccc(Cl)cc3)[nH]c(=O)c2C#N)ccc1OCC(=O)Nc1ccccc1 [7d, 2-(4-(6-(4-Chlorophenyl)-3-cyano-2-oxo-1,2-dihydropyridin-4-yl)-2methoxyphenoxy)-N-phenylacetamide] |  | 41.1 ± 1.69 |  | 
 | COc1cc(-c2cc(-c3ccc(Br)cc3)[nH]c(=O)c2C#N)ccc1OCC(=O)Nc1ccccc1 [7e, 2-(4-(6-(4-Bromophenyl)-3-cyano-2-oxo-1,2-dihydropyridin-4-yl)-2-methoxyphenoxy)-N-phenylacetamide] |  | 21.9 ± 0.9 |  | 
296 to 298 | COc1cc(-c2cc(-c3ccco3)[nH]c(=O)c2C#N)ccc1OCC(=O)Nc1ccccc1 [7f, 2-(4-(3-Cyano-6-(furan-2-yl)-2-oxo-1,2-dihydropyridin-4-yl)-2-methoxyphenoxy)-N-phenylacetamide] |  | 3.98 | 3.98 ± 0.16 | 
293 to 295 | COc1cc(-c2cc(-c3cccs3)[nH]c(=O)c2C#N)ccc1OCC(=O)Nc1ccccc1 [7g, 2-(4-(3-Cyano-2-oxo-6-(thiophen-2-yl)-1,2-dihydropyridin-4-yl)-2-methoxyphenoxy)-N-phenylacetamide] |  | 1.92 ± 0.08 | 1.93 ± 0.08 | 
 | COc1cc(-c2cc(-c3ccncc3)[nH]c(=O)c2C#N)ccc1OCC(=O)Nc1ccccc1 [7i, 2-(4-(3-Cyano-2-oxo-6-(pyridin-4-yl)-1,2-dihydropyridin-4-yl)-2-methoxyphenoxy)-N-phenylacetamide] |  | 23.9 ± 0.98 |  | 
> 300 | COc1cc(-c2cc(-c3ccc4ccccc4c3)[nH]c(=O)c2C#N)ccc1OCC(=O)Nc1ccccc1 [7j, 2-(4-(3-Cyano-6-(naphthalen-2-yl)-2-oxo-1,2-dihydropyridin-4-yl)-2-methoxyphenoxy)-N-phenylacetamide] |  | 20.1 ± 0.83 |  | 
158 to 160 | COc1cccc(-c2cc(-c3ccc(OCC(=O)Nc4ccccc4)c(OC)c3)c(C#N)c(OC)n2)c1 [8b, 2-(4-(3-Cyano-2-methoxy-6-(3-methoxyphenyl)-pyridin-4-yl)-2-methoxy-phenoxy)-N-phenylacetamide] |  | 36.2 ± 1.49 |  | 
188 to 190 | COc1ccc(-c2cc(-c3ccc(OCC(=O)Nc4ccccc4)c(OC)c3)c(C#N)c(OC)n2)cc1 [8c, 2-(4-(3-Cyano-2-methoxy-6-(4-methoxyphenyl)pyridin-4-yl)-2-methoxyphenoxy)-N-phenylacetamide] |  | 3.74 ± 0.15 | 3.75 ± 0.15 | 
 | COc1cc(-c2cc(-c3ccc(Br)cc3)nc(OC)c2C#N)ccc1OCC(=O)Nc1ccccc1 [8e, 2-(4-(6-(4-Bromophenyl)-3-cyano-2-methoxypyridin-4-yl)-2-methoxyphenoxy)-N-phenylacetamide] |  | 42.6 ± 1.75 |  | 
193 to 195 | COc1cc(-c2cc(-c3ccc4ccccc4c3)nc(OC)c2C#N)ccc1OCC(=O)Nc1ccccc1 [8f] |  |  |  | 
178 to 180 | COc1cc(-c2cc(-c3ccco3)nc(OC)c2C#N)ccc1OCC(=O)Nc1ccccc1 [8g, 2-(4-(3-Cyano-6-(furan-2-yl)-2-methoxypyridin-4-yl)-2-methoxyphenoxy)-N-phenyl acetamide] |  | 21.3 ± 0.87 |  | 
 | COc1cc(-c2cc(-c3ccccc3)n(C)c(=O)c2C#N)ccc1OCC(=O)Nc1ccccc1 [9a, 2-(4-(3-Cyano-1-methyl-2-oxo-6-phenyl-1,2-dihydropyridin-4-yl)-2-methoxyphenoxy)-N-phenylacetamide] |  | 9.1 ± 0.37 | 9.1 ± 0.37 | 
 | COc1cccc(-c2cc(-c3ccc(OCC(=O)Nc4ccccc4)c(OC)c3)c(C#N)c(=O)n2C)c1 [9b, 2-(4-(3-Cyano-6-(3-methoxyphenyl)-1-methyl-2-oxo-1,2-dihydropyridin-4-yl)-2-methoxyphenoxy)-N-phenylacetamide] |  | 8.79 ± 0.36 | 8.8 ± 0.36 | 
 | COc1ccc(-c2cc(-c3ccc(OCC(=O)Nc4ccccc4)c(OC)c3)c(C#N)c(=O)n2C)cc1 [9c, 2-(4-(3-Cyano-6-(4-methoxyphenyl)-1-methyl-2-oxo-1,2-dihydropyridin-4-yl)-2-methoxyphenoxy)-N-phenylacetamide] |  | 26.1 ± 1.07 |  | 
 | COc1cc(-c2cc(-c3ccc(Br)cc3)n(C)c(=O)c2C#N)ccc1OCC(=O)Nc1ccccc1 [9e, 2-(4-(6-(4-Bromophenyl)-3-cyano-1-methyl-2-oxo-1,2-dihydropyridin-4-yl)-2-methoxyphenoxy)-N-phenylacetamide] |  | 18.3 ± 0.75 |  | 
193 to 195 | COc1cc(-c2cc(-c3ccc4ccccc4c3)n(C)c(=O)c2C#N)ccc1OCC(=O)Nc1ccccc1 [9f, 2-(4-(3-Cyano-1-methyl-6-(naphthalen-2-yl)-2-oxo-1,2-dihydropyridin-4-yl)-2-methoxyphenoxy)-N-phenylacetamide] |  | 41.4 ± 1.7 |  | 
170 to 172 | COc1cc(-c2cc(-c3ccco3)n(C)c(=O)c2C#N)ccc1OCC(=O)Nc1ccccc1 [9g, 2-(4-(3-Cyano-6-(furan-2-yl)-1-methyl-2-oxo-1,2-dihydropyridin-4-yl)-2-methoxyphenoxy)-N-phenylacetamide] |  | 13.2 ± 0.54 |  | 
 | N#CC1=C(c2cc3ccccc3nc2Cl)C=C(c2ccc(Br)cc2)NC1Cl (stereo not drawn) [C] |  |  |  | 0.46
 | COc1cccc2c1C(=O)c1c(O)c3c(c(O)c1C2=O)C[C@@](O)(C(=O)CO)C[C@@H]3O[C@H]1C[C@H](N)[C@H](O)[C@H](C)O1 [Doxorubicin, reference compound] |  | 11.5 ± 0.47 | 11.5 ± 0.47 | 
 | COc1nc(-c2ccc(OCc3ccccc3)cc2)cc(-c2ccc(N(C)C)cc2)c1C#N [F] |  |  |  | 0.13
284 to 286 | COc1cc(-c2cc(-c3ccc[n+](C)c3)nc(OC)c2C#N)ccc1OCC(=O)Nc1ccccc1.[I-] [compound 10, 5-cyano-6-methoxy-4-(3-methoxy-4-(2-oxo-2-(phenylamino)ethoxy)phenyl)-1'-methyl-2,3'-bipyridin-1'-iumiodide] |  | 2.13 ± 0.09 | 2.14 ± 0.09 | 
